According to patent US20210196670A1, “ORAL FORMULATIONS OF LAVENDER AND CANNABINOIDS” (EMERALD HEALTH THERAPEUTICS CANADA INC., priority 2018, published 2021):

Test system: activation of NF-κB by TNFα
Experiment: NF-κB luciferase reporter assay (TNFα-stimulated NIH-3T3-KBFLuc cells)
Format: cell-based
Details: for Experiment 1 % of activity / Experiment 2 % of activity / Experiment 3 % of activity / Conclusions: Is inhibition of TNF activation of NF-κB observed?: cannabinoid 10 μM alone; for Experiment 1 % of activity / Experiment 2 % of activity / Experiment 3 % of activity: TNFα 30 ng/mL = 100%; for Conclusions: Is inhibition of TNF activation of NF-κB observed?: mean of three experiments
Description: The NF-kB pathway inhibition in response to treatment with the Cannabinoid and NHP either as single agents or in combination will be monitored using the Luciferase Reporter gene assay described in Del Prete et al, J. Nat. Prod.
For the anti-NF-κB activity stably transfected NIH-3T3-KBFLuc cells are treated with different concentration of NHP compounds for 30 minutes and then stimulated with TNF-α (30 ng/mL). After treatment, the cells are washed twice in phosphate-buffered saline and lysed in 25 mM Tris-phosphate pH 7.8, 8 mM MgCl2, 1 mM DTT, 1% Triton X-100, and 7% glycerol during 15 min at room temperature in a horizontal shaker. Luciferase activity in the supernatant is measured using a TriStar2 Berthold/LB942 multimode reader (Berthold Technologies) following the manufacturer's instructions of the luciferase assay kit (Promega, Madison, Wis., US). For NF-κB inhibition the RLU (relative light units) is calculated, and the results are normalized to 100% stimulation induced by induced by TNF-α (100% activation). The results are presented from three independent experiments.

SMILES	inhibition of NF-κB activity by the cannabinoid itself (10 μM, alone)	Experiment 1 % of activity [%]	Experiment 2 % of activity [%]	Experiment 3 % of activity [%]	Conclusions: Is inhibition of TNF activation of NF-κB observed?
C=C(C)[C@@H]1CCC(C)=C[C@H]1c1c(O)cc(CCCCC)cc1O [CBD, cannabidiol]	non-inhibitory	93.6	97.0	108.2	Negative (Only treatments that the mean of three consecutive independent experiments shows a positive result (activity ≤50%) are considered inhibitory of NF-κB activity)
CCCCCc1cc(O)c2c(c1)OC(C)(C)[C@@H]1CCC(C)=C[C@@H]21 [THC, tetrahydrocannabinol]	–	102.5	97.8	98.5	Negative (Only treatments that the mean of three consecutive independent experiments shows a positive result (activity ≤50%) are considered inhibitory of NF-κB activity)
